Here are results for 16 compounds from patent US20090030015A1, “NOVEL MULTI-CYCLIC COMPOUNDS” (REVOTAR BIOPHARMACEUTICALS AG, priority 2005, published 2009).

Assay [1] addresses T1, human L-Selectin-IgG-chimera (Homo sapiens, UniProt P14151).
T1 construct: fused on or other part: human IgG Fc part, captured on the plate by goat anti human Fc antibody; a tag, no second protein
T1 sequence (P14151 39-318 limits assumed): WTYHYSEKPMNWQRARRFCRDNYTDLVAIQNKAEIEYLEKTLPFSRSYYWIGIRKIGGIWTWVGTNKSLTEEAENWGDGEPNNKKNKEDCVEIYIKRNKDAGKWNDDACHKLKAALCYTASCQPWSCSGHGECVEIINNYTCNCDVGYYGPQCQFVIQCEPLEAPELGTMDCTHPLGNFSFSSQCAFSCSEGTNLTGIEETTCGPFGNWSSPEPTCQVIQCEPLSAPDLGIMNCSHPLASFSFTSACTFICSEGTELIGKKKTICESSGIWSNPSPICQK
The assay can be described thus: Sialyl Lewis X Tyrosine Sulfate Assay (sLex TSA), L-selectin. Format: binding. Particulars: sLexTSA. How it is done:
(§1) Sialyl Lewis^X Tyrosine Sulfate Assay (sLe^x TSA):
(§2) Compounds of the present invention are assayed on a molecular level for their ability to inhibit the binding of P-, L-, or E-selectin chimeric molecules to sLe^x and tyrosinesulfate residues linked to a polymeric matrix as a PSGL-1 substitute. Selected IC50-values are determined.
(§3) Microtiter plates are coated overnight in carbonate buffer pH9.6 with goat anti human Fc mAB (10 μg/ml). After washing in assay buffer (25 mM 4-(2-hydroxyethyl)-1-piperazineethanesulfonic acid (HEPES), 150 mM NaCl, 1 mM CaCl2 pH7.4) and blocking (3% bovine serum albumin (BSA) in assay buffer) plates are incubated for 2 h at 37° C. with human P-Selectin-IgG-chimera (0.61 nM respectively 150 ng/mL) or human L-Selectin-IgG-chimera (0.61 nM respectively 89 ng/mL) or human E-Selectin-IgG-chimera (0.61 nM respectively 131 ng/mL). 5 μl of sLe^x-tyrosine sulfate polyacrylamide (1 mg/ml) carrying 15% sLe^x, 10% Tyrosine-sulfate and 5% biotin is complexed with 20 μl Streptavidin-Peroxidase solution (1 mg/ml) and 25 μl assay buffer without CaCl2. For use in the assay, the ligand complex is diluted 1:10000 in assay buffer and further diluted 1:1 with varying amounts of compounds in assay buffer incl. 2% DMSO. This mixture is added to the wells precoated with E- or P-selectin. After incubation for 2 h at 37° C., wells are washed for six times with in assay buffer incl. 0.005% Polyoxyethylenesorbitan monolaurate (TWEEN 20), developed for 10-15 min with 20 μl 3,3′,5,5′-tetramethylbenzidine (TMB)/H2O2 substrate solution and stopped with 20 μl 1M H2SO4. Bound sLe^x-Tyrosine sulfate ligand complex is determined by measuring optical density at 450 nm vs. 620 nm in a Fusion alpha-FP reader (sold from Packard Bioscience, Dreieich, Germany).

The subject of assay [2] is human P-selectin-IgG chimera. In words: Flow chamber assay, cell adhesion and rolling under flow conditions, P-selectin. Particulars: normalized ratio of %-inhibition of compound divided by %-inhibition of bimosiamose; 125 μM compound; HL-60 cells; flow shear 1 dyne/cm^2. It counts as cell-based. How it is done:
(§4) Flow Chamber Assay/Cell Adhesion and Rolling Under Flow Conditions
(§5) To assess the capability of compounds to inhibit cell binding under dynamic conditions resembling the flow in a blood vessel, flow chamber assays addressing/testing binding of HL-60 cells/various cell lines to P-selectin, L-selectin and E-selectin chimeric molecules are performed.
(§6) Cell attachment under flow conditions is determined using a parallel flow chamber system. A 35 mm polystyrene culture dish is coated for 1 hour at room temperature with coating buffer (50 mM tris-(hydroxymethyl)aminomethane buffer (Tris), 150 mM NaCl, 2 mM CaCl2; pH 7.4) containing human E- or P-selectin-IgG chimera at concentrations of 2.5 μg/ml or 10 μg/ml, respectively. After removal of the coating solution non specific binding sites are blocked for an additional hour with 1% BSA in coating buffer at room temperature. After washing with assay buffer (“Roswell Park Memorial Institute 1640” (RPMI 1640)+10 mM HEPES) the dish is fitted into a parallel plate laminar flow chamber (sold from Glycotech, Rockville, Md.) and mounted on an inverted phase-contrast microscope (sold from Olympus, Hamburg, Germany) equipped with a CCD camera (JVC) that is connected to a PC. Employing a peristaltic pump (sold from Ismatec, Wertheim-Mondfeld, Germany) the re-circulating system is equilibrated with assay buffer containing 125 μM compound or vehicle control (DMSO). Cells (1 million/ml) are added to the chamber and allowed to distribute for 2 minutes at a high flow rate. The flow rate is then decreased resulting in a calculated flow shear of 1 dyne/cm^2. Video sequences of 10 low power fields are digitally recorded after 5 minutes continuous flow. The percentage of inhibition is calculated from the mean number of cells per field that attached to the coated dish surface in the presence versus absence of compound […].

Assay [3] deals with human E-selectin-IgG chimera. In words: Flow chamber assay, cell adhesion and rolling under flow conditions, E-selectin. It counts as cell-based. Particulars: normalized ratio of %-inhibition of compound divided by %-inhibition of bimosiamose; 125 μM compound; HL-60 cells; flow shear 1 dyne/cm^2. As to the method:
as §4, §5, §6

Assay [4] concerns the target T2, human P-Selectin-IgG-chimera (Homo sapiens, UniProt P16109).
T2 sequence (P16109 42-771 limits assumed): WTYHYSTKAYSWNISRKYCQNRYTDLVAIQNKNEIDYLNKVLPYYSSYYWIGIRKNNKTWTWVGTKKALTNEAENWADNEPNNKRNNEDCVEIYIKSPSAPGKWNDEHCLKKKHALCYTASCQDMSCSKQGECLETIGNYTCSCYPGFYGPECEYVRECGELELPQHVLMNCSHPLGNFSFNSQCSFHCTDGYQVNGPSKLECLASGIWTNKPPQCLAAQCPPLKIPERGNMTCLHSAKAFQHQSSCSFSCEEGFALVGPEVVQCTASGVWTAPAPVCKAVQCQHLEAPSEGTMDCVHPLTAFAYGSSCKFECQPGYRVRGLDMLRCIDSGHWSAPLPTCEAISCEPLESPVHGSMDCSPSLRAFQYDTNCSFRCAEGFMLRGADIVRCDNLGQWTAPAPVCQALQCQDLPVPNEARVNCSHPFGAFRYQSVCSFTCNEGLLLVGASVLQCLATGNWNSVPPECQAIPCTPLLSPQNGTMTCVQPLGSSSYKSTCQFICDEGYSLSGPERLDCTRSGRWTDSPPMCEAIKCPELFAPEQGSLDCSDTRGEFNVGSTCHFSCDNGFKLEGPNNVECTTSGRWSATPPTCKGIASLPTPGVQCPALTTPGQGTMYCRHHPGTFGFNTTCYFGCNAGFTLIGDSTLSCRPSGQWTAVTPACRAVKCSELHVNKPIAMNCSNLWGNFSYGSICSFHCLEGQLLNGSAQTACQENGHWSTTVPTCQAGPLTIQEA
The assay can be described thus: Sialyl Lewis X Tyrosine Sulfate Assay (sLex TSA), P-selectin. Particulars: sLexTSA. Format: binding. How it is done: as §1, §2, §3

The IC50 is the concentration at which inhibition is half-maximal. Read a low IC50 as inhibition by little substance.

Some results are limits rather than exact numbers.

The compound `O=C(O)Cc1cccc(-c2cc(CCCCCCc3ccc(O[C@H]4O[C@H](CO)[C@@H](O)[C@H](O)[C@@H]4O)c(-c4cccc(CC(=O)O)c4)c3)ccc2O[C@H]2O[C@H](CO)[C@@H](O)[C@H](O)[C@@H]2O)c1` [Bimosiamose, bimosiamose, reference compound] had an IC50 in assay [1] of more than 500 µM.
Regarding `Cc1oc(-c2ccc(NC(=O)Cc3ccc(O)cc3O)cc2)cc1C(=O)O` [Compound 29, 5-{4-[2-(2,4-Dihydroxy-phenyl)-acetylamino]-phenyl}-2-methyl-furan-3-carboxylic acid], the “P-Selectin [Ratio]” value in assay [2] is recorded as 0.74 Ratio. In addition, the “E-Selectin [Ratio]” value in assay [3] stood at 1.31 Ratio.
The corresponding values for `Cc1oc(-c2ccc(NC(=O)Cc3cc(O)cc(O)c3)cc2)cc1C(=O)O` [Compound 31, 5-{4-[2-(3,5-Dihydroxy-phenyl)-acetylamino]-phenyl}-2-methyl-furan-3-carboxylic acid] are 0.60 Ratio and 1.16 Ratio.
Turning to `COc1ccc(-c2cccc(C(=O)Nc3ccccc3-c3ccc(CC(=O)O)s3)c2)c(OC)c1` [Compound 62, (5-{2-[(2′,4′-Dimethoxy-biphenyl-3-carbonyl)-amino]-phenyl}-thiophen-2-yl)acetic acid], the values for the IC50 in assay [1] and in assay [4] were 151 µM and 62.9 µM, respectively. For the same compound, the “P-Selectin [Ratio]” value in assay [2] came to 1.22 Ratio. For the same compound, in assay [3], the “E-Selectin [Ratio]” value came out at 1.15 Ratio.
Take `O=C(O)Cc1ccc(-c2ccccc2NC(=O)c2cccc(-c3ccc(O)cc3O)c2)s1` [Compound 63, (5-{2-[(2′,4′-Dihydroxy-biphenyl-3-carbonyl)-amino]-phenyl}-thiophen-2-yl)acetic acid]: the values for the IC50 in assay [1] and in assay [4] were 157 µM and 81.2 µM, respectively. Besides, in assay [2], the “P-Selectin [Ratio]” value is listed as 1.95 Ratio. Moreover, the “E-Selectin [Ratio]” value in assay [3] is 1.31 Ratio.
Consider `O=C(O)Cc1ccc(-c2ccccc2NC(=O)Cc2cccc(-c3ccc(O)cc3O)c2)s1` [Compound 70, (5-{2-[2-(2′,4′-Dihydroxy-biphenyl-3-yl)-acetylamino]-phenyl}-thiophen-2-yl)-acetic acid], for which the “P-Selectin [Ratio]” value in assay [2] was 0.82 Ratio. For the same compound, in assay [3], the “E-Selectin [Ratio]” value was found to be 0.83 Ratio. Also, in assay [4], 354 µM corresponded to half-maximal inhibition (IC50).
With `COC(=O)Cc1ccc(-c2ccccc2NC(=O)c2cncc(-c3ccc(O)cc3O)c2)s1` [Compound 74, [5-(2-{[5-(2,4-Dihydroxy-phenyl)-pyridine-3-carbonyl]-amino}-phenyl)-thiophen-2-yl]-acetic acid methyl ester], the “P-Selectin [Ratio]” value in assay [2] was 1.02 Ratio. In addition, the “E-Selectin [Ratio]” value in assay [3] was 0.68 Ratio.
The corresponding values for `O=C(O)c1cccc(NC(=O)c2cccc(-c3ccc(O)cc3O)c2)c1` [Compound 79, 3-[(2′,4′-Dihydroxy-biphenyl-3-carbonyl)-amino]-benzoic acid] are 1.19 Ratio and 0.96 Ratio.
As for `O=C(O)Cc1ccc(-c2ccccc2NC(=O)c2cccc(-c3cc(O)cc(O)c3)c2)s1` [Compound 82, (5-{2-[(3′,5′-Dihydroxy-biphenyl-3-carbonyl)-amino]-phenyl}-thiophen-2-yl)-acetic acid], the “P-Selectin [Ratio]” value in assay [2] was determined as 2.11 Ratio. For the same compound, in assay [3], the “E-Selectin [Ratio]” value was 1.35 Ratio.
The corresponding values for `O=C(Nc1ccccc1-c1ccc(C(=O)O)s1)c1cccc(-c2cc(O)cc(O)c2)c1` [Compound 85, 5-{2-[(3′,5′-Dihydroxy-biphenyl-3-carbonyl)-amino]-phenyl}-thiophene-2-carboxylic acid] are 1.90 Ratio and 1.20 Ratio.
The corresponding values for `O=C(Nc1ccccc1-c1cccs1)c1cccc(-c2ccc(O)cc2O)c1` [Compound 87, 2′,4′-Dihydroxy-biphenyl-3-carboxylic acid (2-thiophen-2-yl-phenyl)-amide] are 1.05 Ratio and 1.24 Ratio.
As to `COc1ccc(-c2cccc(C(=O)Nc3cccc(-c4ccc(CC(=O)O)s4)c3)c2)c(OC)c1` [Compound 89, (5-{3-[(2′,4′-Dimethoxy-biphenyl-3-carbonyl)-amino]-phenyl}-thiophen-2-yl)-acetic acid], the “P-Selectin [Ratio]” value in assay [2] amounted to 1.41 Ratio. The “E-Selectin [Ratio]” value in assay [3] was 1.27 Ratio.
Regarding `O=C(O)Cc1ccc(-c2cccc(NC(=O)c3cccc(-c4ccc(O)cc4O)c3)c2)s1` [Compound 90, (5-{3-[(2′,4′-Dihydroxy-biphenyl-3-carbonyl)-amino]-phenyl}-thiophen-2-yl)-acetic acid], the IC50 in assay [1] is 38.7 µM; in assay [4], 19.1 µM.
Regarding `Cc1oc(-c2ccc(NC(=O)c3cccc(-c4ccc(O)cc4O)c3)nc2)cc1C(=O)O` [Compound 93, 5-{6-[(2′,4′-Dihydroxy-biphenyl-3-carbonyl)-amino]-pyridin-3-yl}-2-methyl-furan-3-carboxylic acid], in assay [2], the “P-Selectin [Ratio]” value turned out to be 1.13 Ratio. In addition, in assay [3], the “E-Selectin [Ratio]” value is 0.86 Ratio.
The corresponding values for `Cc1oc(-c2ccc(NC(=O)c3cccc(-c4ccc(O)cc4O)c3)cc2)cc1C(=O)O` [Compound 96, 5-{4-[(2′,4′-Dihydroxy-biphenyl-3-carbonyl)-amino]-phenyl}-2-methyl-furan-3-carboxylic acid] are 1.02 Ratio and 1.13 Ratio.
Turning to `O=C(Nc1cccc(C(F)(F)F)c1)c1cccc(-c2ccc(O)cc2O)c1` [Compound 98, 2′,4′-Dihydroxy-biphenyl-3-carboxylic acid (3-trifluoromethyl-phenyl)-amide], in assay [2], the “P-Selectin [Ratio]” value is listed as 1.00 Ratio. Further, in assay [3], the “E-Selectin [Ratio]” value came to 1.26 Ratio.
